Laboratory results from ChEMBL document CHEMBL5550160, “Leveraging a rationally designed veliparib-based anilide eliciting anti-leukemic effects for the design of pH-responsive polymer nanoformulation” (Eur J Med Chem, 2024).
Activity calls are given as the source filed them. The rule behind the calls is not given here.

Tests used:
Histone deacetylase 1 = Histone deacetylase 1 (Homo sapiens, UniProt Q13547); test: Inhibition of HDAC1 (unknown origin) using p53 residues 379 to 382 [RHKK(Ac)] as fluorogenic substrate assessed as residual activity at 4.57 x 10^-9M (reference value: 98.06%); conditions: dose 4.57 10^-9M
Chain of Histone deacetylase 1 (Q13547 whole entry, the tested form may be a part): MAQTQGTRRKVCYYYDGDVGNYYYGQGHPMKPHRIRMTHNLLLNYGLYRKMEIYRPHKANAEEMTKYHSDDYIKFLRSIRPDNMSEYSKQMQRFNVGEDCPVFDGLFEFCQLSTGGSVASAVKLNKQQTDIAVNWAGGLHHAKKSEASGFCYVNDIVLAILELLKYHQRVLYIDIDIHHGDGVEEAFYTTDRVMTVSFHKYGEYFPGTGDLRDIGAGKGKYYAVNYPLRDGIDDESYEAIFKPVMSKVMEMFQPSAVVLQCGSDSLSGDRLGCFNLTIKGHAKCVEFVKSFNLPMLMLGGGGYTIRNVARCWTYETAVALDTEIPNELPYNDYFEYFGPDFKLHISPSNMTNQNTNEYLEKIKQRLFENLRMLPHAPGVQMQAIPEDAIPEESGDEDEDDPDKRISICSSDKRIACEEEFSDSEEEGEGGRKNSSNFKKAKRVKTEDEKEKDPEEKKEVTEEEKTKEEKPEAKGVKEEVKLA

Histone deacetylase 2 [1] = target: T1, Histone deacetylase 2 (Homo sapiens, UniProt Q92769); test: Inhibition of HDAC2 (unknown origin) assessed as residual activity at 3.70 x 10^-7M (reference value: 99.81%); conditions: dose 3.7 10^-7M
T1 sequence (Q92769 whole entry): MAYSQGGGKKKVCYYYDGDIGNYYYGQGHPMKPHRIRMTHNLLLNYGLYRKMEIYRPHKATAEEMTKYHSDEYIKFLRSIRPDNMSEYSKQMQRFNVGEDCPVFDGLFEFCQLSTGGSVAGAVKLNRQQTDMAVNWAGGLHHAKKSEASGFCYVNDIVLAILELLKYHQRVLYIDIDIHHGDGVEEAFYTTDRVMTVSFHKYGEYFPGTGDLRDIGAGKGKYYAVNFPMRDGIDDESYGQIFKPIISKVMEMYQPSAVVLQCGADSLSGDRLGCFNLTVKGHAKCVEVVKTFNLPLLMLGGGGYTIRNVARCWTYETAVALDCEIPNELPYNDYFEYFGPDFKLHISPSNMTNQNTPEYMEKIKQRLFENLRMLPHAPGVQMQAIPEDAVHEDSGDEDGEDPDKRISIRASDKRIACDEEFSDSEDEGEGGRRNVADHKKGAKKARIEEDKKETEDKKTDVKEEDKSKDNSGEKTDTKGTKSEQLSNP

Histone deacetylase 2 [2] = target: T1, Histone deacetylase 2; test: Inhibition of HDAC2 (unknown origin) assessed as residual activity at 1.37 x 10^-8M (reference value: 99.81%); conditions: dose 1.37 10^-8M
Histone deacetylase 3 [3] = target: T2, Histone deacetylase 3 (Homo sapiens, UniProt O15379); test: Inhibition of HDAC3 (unknown origin) using p53 residues 379 to 382 [RHKK(Ac)] as fluorogenic substrate assessed as residual activity at 1.23 x 10^-7M (reference value: 103.08%); conditions: dose 1.23 10^-7M
T2 sequence (O15379 whole entry, the tested form may be a part): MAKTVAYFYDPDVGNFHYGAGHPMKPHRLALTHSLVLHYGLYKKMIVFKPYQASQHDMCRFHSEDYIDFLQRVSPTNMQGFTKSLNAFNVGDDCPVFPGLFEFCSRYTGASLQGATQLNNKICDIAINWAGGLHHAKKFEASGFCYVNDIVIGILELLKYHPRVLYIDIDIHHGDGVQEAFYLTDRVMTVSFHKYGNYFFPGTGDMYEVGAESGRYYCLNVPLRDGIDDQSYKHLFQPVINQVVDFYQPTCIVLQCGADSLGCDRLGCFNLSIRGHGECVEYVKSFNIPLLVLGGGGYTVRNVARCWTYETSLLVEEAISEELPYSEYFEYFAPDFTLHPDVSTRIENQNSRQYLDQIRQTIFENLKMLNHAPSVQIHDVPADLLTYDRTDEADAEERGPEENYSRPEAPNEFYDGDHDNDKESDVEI

[4] = target: T3, Protein deacetylase HDAC6 (Homo sapiens) (UniProt Q9UBN7); test: Inhibition of HDAC6 (unknown origin) using p53 residues 379 to 382 [RHKK(Ac)] as fluorogenic substrate assessed as residual activity at 1.52 x 10^-9M (reference value: 101.06%); conditions: dose 1.52 10^-9M
T3 sequence (whole entry): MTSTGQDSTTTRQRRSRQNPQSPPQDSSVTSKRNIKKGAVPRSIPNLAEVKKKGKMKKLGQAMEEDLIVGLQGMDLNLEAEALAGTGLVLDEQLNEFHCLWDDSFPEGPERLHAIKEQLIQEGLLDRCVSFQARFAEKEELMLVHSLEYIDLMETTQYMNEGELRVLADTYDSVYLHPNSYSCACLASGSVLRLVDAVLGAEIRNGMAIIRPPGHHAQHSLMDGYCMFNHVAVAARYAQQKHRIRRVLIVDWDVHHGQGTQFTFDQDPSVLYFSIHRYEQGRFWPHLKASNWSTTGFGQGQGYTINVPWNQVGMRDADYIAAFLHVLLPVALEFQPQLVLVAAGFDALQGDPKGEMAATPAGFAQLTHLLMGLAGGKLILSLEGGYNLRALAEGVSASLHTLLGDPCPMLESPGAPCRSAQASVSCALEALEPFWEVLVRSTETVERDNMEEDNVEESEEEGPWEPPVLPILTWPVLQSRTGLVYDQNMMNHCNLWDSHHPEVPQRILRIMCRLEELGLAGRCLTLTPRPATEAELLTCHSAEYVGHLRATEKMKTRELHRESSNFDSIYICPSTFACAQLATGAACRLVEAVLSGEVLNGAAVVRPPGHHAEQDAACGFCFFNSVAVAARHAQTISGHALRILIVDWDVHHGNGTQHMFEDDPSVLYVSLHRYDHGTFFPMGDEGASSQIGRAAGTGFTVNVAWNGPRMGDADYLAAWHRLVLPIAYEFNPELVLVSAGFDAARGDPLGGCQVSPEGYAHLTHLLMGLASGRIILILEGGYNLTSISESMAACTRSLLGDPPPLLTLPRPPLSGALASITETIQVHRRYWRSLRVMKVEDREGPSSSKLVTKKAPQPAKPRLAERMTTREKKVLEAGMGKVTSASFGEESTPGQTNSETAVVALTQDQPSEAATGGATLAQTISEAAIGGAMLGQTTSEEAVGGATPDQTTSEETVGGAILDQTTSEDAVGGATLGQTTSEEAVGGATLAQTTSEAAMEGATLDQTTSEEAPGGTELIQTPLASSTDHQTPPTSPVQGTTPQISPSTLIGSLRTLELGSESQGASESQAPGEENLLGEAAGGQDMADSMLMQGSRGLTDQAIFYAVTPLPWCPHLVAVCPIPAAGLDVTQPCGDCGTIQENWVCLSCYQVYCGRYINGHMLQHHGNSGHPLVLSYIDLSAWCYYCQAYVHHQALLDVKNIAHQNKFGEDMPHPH

[5] = target: T4, Histone deacetylase 8 (Homo sapiens) (UniProt Q9BY41); test: Inhibition of HDAC8 (unknown origin) assessed as residual activity at 1.52 x 10^-9M (reference value: 100%); conditions: dose 1.52 10^-9M
T4 sequence (whole entry): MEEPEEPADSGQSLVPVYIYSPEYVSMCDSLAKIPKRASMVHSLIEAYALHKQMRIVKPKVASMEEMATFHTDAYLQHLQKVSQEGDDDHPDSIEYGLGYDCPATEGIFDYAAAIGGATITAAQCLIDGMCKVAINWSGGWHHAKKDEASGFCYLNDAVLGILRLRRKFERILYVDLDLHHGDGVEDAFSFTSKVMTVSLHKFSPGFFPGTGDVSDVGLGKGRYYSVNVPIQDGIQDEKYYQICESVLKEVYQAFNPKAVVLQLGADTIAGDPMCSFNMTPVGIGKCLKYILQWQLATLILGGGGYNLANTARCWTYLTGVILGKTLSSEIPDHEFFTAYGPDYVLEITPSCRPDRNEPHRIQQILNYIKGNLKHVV

[6] = target: T5, Polyamine deacetylase HDAC10 (Homo sapiens) (UniProt Q969S8); test: Inhibition of HDAC10 (unknown origin) assessed as residual activity at 1.52 x 10^-9M (reference value: 101.54%); conditions: dose 1.52 10^-9M
T5 sequence (whole entry): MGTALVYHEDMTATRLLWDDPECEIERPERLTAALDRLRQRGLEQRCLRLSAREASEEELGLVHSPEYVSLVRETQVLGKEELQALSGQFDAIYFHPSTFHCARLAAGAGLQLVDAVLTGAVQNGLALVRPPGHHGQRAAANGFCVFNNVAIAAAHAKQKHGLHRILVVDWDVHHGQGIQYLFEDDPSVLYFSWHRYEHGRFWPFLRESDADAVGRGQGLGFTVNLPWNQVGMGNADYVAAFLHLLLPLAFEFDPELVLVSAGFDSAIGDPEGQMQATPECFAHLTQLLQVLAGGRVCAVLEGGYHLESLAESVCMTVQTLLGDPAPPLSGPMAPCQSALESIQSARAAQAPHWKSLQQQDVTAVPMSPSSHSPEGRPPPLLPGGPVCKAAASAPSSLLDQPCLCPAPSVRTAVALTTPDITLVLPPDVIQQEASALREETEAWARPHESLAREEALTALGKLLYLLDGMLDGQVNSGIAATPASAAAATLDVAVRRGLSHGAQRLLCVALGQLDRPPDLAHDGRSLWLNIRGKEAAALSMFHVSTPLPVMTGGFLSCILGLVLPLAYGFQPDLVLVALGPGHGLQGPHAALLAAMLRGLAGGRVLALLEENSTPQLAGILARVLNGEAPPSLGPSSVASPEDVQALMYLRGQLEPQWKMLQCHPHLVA

Histone deacetylase 3 [7] = target: T2, Histone deacetylase 3; test: Inhibition of HDAC3 (unknown origin) using p53 residues 379 to 382 [RHKK(Ac)] as fluorogenic substrate
HL-60 = test: Downregulation of HDAC3 protein expression in human HL-60 cells at 0.5 to 1 times IC50 by Western blot analysis; format: functional, cell-based

Activity (Histone deacetylase 1): 88.7%
Activity (Histone deacetylase 2 [1]): 33.5%
Activity (Histone deacetylase 2 [2]): 86.2%
Activity (Histone deacetylase 3 [3]): 84.1%
Activity [4]: 96.7%
Activity [5]: 103%
Activity [6]: 97.3%
IC50 (Histone deacetylase 3 [7]): 393 nM
SMILES: NC(=O)c1cccc2[nH]c(-c3ccc(NCc4ccc(C(=O)Nc5ccccc5N)cc4)cc3)nc12
Activity (HL-60): Active
